The text below walks through data of publication PMC10761696, “Avapritinib-based SAR studies unveil a binding pocket in KIT and PDGFRA” (Nature Communications, 2024).

The term IC50 denotes the concentration that gives 50% inhibition. One may read the EC50 as the concentration needed to bring the measured effect to its halfway point. For orientation: Papp B→A means how fast a substance crosses the layer from the basolateral side. In general, Papp A→B refers to how fast a substance crosses the layer from the apical side. A higher Papp A→B goes with ready permeation. One may read the efflux ratio as the permeability from basolateral to apical divided by that in the opposite direction, in the common usage.

Values joined by “and” are separate entries in the source; they are usually repeats but may differ in a detail not shown here. Identical values can stand only once. Like-named read-outs stand apart in the source and are kept apart here.

The target in one data set is T1, PDGFRA-D842V (Homo sapiens, UniProt P16234, D842V).
T1 construct: purchased Invitrogen PV4203 (lot #2343231B)
T1 sequence (P16234 24-1089 D842V): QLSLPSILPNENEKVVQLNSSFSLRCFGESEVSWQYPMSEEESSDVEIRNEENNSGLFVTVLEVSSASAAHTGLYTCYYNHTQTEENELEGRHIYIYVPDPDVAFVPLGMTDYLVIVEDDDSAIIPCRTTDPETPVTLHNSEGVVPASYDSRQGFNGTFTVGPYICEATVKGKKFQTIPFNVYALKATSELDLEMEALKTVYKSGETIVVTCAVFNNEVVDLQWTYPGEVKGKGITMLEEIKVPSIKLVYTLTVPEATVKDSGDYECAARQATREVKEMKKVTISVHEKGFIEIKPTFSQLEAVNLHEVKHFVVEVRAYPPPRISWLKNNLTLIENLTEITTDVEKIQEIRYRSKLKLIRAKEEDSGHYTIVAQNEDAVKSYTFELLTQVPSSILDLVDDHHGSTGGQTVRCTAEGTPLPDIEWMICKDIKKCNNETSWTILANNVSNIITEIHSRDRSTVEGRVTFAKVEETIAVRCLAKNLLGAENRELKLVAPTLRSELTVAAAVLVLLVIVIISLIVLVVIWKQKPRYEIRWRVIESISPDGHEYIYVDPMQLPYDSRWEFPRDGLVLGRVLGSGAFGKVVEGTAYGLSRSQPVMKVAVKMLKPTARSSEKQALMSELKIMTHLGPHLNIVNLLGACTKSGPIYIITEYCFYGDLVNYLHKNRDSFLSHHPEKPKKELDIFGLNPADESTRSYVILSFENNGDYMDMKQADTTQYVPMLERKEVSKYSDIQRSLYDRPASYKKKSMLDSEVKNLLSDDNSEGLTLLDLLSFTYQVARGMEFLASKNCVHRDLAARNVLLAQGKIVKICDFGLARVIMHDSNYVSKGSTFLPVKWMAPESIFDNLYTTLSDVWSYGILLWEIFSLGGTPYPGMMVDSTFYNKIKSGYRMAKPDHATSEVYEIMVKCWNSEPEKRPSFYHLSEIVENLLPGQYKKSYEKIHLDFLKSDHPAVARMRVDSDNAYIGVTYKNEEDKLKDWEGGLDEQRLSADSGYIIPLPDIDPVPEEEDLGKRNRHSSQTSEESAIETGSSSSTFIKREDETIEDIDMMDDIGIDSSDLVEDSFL
Briefly: Activity-based HTRF KinEASE assay, PDGFRA-D842V. In kind it is biochemical. A general note: Time-resolved FRET reads energy transfer from a long-lived donor to a nearby acceptor.

In a further data set the target is KIT-D816H (Homo sapiens, UniProt P10721, D816H). Briefly: Activity-based HTRF KinEASE assay, KIT-D816H. In kind it is biochemical.
Sequence of KIT-D816H (P10721 26-976 D816H): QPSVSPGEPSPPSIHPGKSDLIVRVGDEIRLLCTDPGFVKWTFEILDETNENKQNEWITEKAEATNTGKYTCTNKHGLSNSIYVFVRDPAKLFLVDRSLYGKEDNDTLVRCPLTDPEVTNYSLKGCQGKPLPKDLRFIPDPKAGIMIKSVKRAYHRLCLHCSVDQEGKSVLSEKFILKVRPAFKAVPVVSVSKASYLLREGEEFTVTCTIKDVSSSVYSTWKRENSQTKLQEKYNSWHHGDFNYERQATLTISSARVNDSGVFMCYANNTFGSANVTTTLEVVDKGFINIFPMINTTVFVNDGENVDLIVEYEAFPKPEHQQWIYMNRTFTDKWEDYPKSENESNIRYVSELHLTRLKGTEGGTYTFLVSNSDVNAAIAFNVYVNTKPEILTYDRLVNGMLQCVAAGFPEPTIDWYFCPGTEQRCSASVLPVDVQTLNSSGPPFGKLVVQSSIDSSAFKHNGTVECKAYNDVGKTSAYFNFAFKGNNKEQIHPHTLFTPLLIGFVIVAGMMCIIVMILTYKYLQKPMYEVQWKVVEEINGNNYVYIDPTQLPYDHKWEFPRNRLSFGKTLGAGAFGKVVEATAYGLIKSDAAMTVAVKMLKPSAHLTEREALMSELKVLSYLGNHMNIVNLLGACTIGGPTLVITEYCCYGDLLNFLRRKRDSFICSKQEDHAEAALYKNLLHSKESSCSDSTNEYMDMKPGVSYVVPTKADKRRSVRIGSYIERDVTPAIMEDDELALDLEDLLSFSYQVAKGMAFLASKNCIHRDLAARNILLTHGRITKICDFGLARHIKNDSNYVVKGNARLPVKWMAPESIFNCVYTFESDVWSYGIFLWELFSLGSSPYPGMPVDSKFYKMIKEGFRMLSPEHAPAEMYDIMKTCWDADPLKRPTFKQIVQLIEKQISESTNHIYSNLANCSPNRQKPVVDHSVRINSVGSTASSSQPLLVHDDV
The test system of a further data set is ZR-75-1. Briefly: CellTiter-Glo (CTG) EC50, ZR-75-1 breast cancer control cell line. Conditions: Homo sapiens. In kind it is cell-based, human. Here is the method: (§1) Cell line authenticity was confirmed by STR analysis at Eurofins Genomics. All cell lines were tested regularly for mycoplasma contamination using the Mycoplasmacheck Service at Eurofins Genomics. […] Following incubation for 24 h in a humidified atmosphere at 37 °C and 5% CO2, cells were treated with inhibitors in serial dilutions ranging from 30 µM down to 0.1 nM using an Echo650 acoustic liquid handler (Beckman Coulter). Cell viability was analyzed on day 5 using the CellTiter-Glo® assay (Promega) using 500 ms integration time. The obtained data were normalized to the plate positive control (30 µM staurosporine) and negative control (DMSO) and subsequently analyzed and fitted with the Quattro Software Suite (Quattro Research) using a four-parameter logistic model. As quality control, the Z’-factor was calculated from 16 positive and negative control values. Only assay results showing a Z’-factor ≥0.5 were used for further analysis. All experimental points were measured in duplicates for each plate and were independently replicated in at least three plates.

Another data set concerns MDA-MB-175VII. The experiment in a line: CellTiter-Glo (CTG) EC50, MDA-MB-175VII breast cancer control cell line. The data set is classed as cell-based, human. The protocol:
as §1
(In general: Cellular ATP, detected with luciferase, serves as a proxy for viable cell number.)

The nature of data set [1]: MDCKII-MDR1 permeability assay. Conditions: dog; for Papp B→A at 2 h, 10 µM: MDCK-MDR1.
The next data set deals with MDR1. Briefly: MDCKII-MDR1 permeability assay. Conditions: dog; for recovery at 2 h, 10 µM: MDCKII-MDR1, assay conc. 10.
Another data set concerns GIST-T1. Briefly: CellTiter-Glo (CTG) GR50, GIST-T1. The settings on record: Homo sapiens, GISTT1, read-out: KIT CTG GR50 GIST-T1, mean ± s.d., n ≥ 3; GR50 half-maximal growth inhibition rate.
In the next data set the test system is T1-a-D842V. The experiment in a line: CellTiter-Glo (CTG) GR50, T1-a-D842V. Conditions: cellular assay.
The subject of the next data set is SK-LMS-1. Briefly: CellTiter-Glo (CTG) GR50, SK-LMS-1 control cell line. The settings on record: for CTG GR50 SK-LMS-1: mean ± s.d., n = 3, control cell line; for CTG GR50 SK-LMS-1, single determinations: raw data of Supp. Tab. 2, independent experiments, unit from Supp. Tab. 2.
Another data set deals with GIST-48B. The experiment in a line: CellTiter-Glo (CTG) GR50, GIST-48B control cell line (off-target toxicity).
For data set [2] the following is noted: ref WO2022/081626; cited from earlier work.
The test system of data set [3] is D842V-mutant gastrointestinal stromal tumors (GIST). The settings on record: patients with D842V-mutant GIST; ref NAVIGATOR trial; cited from earlier work.
For a further data set, the system named is T1-D816E. Briefly: CellTiter-Glo (CTG) GR50, T1-D816E. The settings on record: mean ± s.d., n ≥ 3.
The subject of the next data set is T1-T670I. The experiment in a line: CellTiter-Glo (CTG) GR50, T1-T670I. Conditions: Homo sapiens, read-out: KIT CTG GR50 T1-T670I, mean ± s.d., n ≥ 3.
The test system of another data set is T1-V654A. Briefly: CellTiter-Glo (CTG) GR50, T1-V654A. Conditions: Homo sapiens.
Another data set deals with T1-a-5258. The experiment in a line: CellTiter-Glo (CTG) GR50, T1-a-5258. The settings on record: Homo sapiens.
A further data set deals with T1-a-G680R. The experiment in a line: CellTiter-Glo (CTG) GR50, T1-a-G680R. Conditions: raw data of Table 1, independent experiments; unit from Table 1.
Setting [4] is: Homo sapiens, MDA-MB-175-VII, read-out: CTG EC50 MDA-MB-175VII, single determinations, raw data of Supp. Tab. 2, independent experiments, unit from Supp. Tab. 2.
Where [5] appears, read: MDCK-MDR1, MDCKII-MDR1 (Papp A→B), at 10 µM, 2 h, 37 °C, unit inferred.

As to `Cn1cc(-c2cc3c(N4CCN(c5ncc([C@@](C)(NC(=O)c6ccccc6)c6ccc(F)cc6)cn5)CC4)ncnn3c2)cn1` [Compound 13], the IC50 at PDGFRA-D842V (mean ± s.d., n ≥ 3, ATP at KM (14 µM), read-out: HTRF IC50 PDGFRA-D842V) was ~0.2 nM and 0.2 nM; at PDGFRA-D842V (raw data of Table 1, independent experiments 1-3, unit from Table 1, read-out: HTRF IC50 PDGFRA-D842V, single determinations) it was 0.2 nM and 0.15 nM and 0.28 nM; at KIT-D816H (mean ± s.d., n ≥ 3, ATP at KM (12 µM), read-out: HTRF IC50 KIT-D816H), 2 ± 0.1 nM; at KIT-D816H (raw data of Table 1, independent experiments, unit from Table 1, read-out: HTRF IC50 KIT-D816H, single determinations), 2.1 nM (2×) and 1.8 nM. In addition, the EC50 with ZR-75-1 (ZR-75-1, mean ± s.d., n = 3, control cell line, read-out: CTG EC50 ZR-75-1) is not below 10 µM; with ZR-75-1 (ZR-75-1, raw data of Supp. Tab. 2, independent experiments, unit from Supp. Tab. 2, read-out: CTG EC50 ZR-75-1, single determinations) it was not below 10 µM; with MDA-MB-175VII (Homo sapiens, MDA-MB-175-VII, read-out: CTG EC50 MDA-MB-175VII, mean ± s.d., n = 3, control cell line), not below 10 µM; with MDA-MB-175VII (setting [4]), not below 10 µM. Besides, the basolateral-to-apical permeability (Papp B→A) at 2 h, 10 µM in data set [1] was 0.47 ×10⁻⁶ cm/s. Moreover, the apparent permeability from apical to basolateral (Papp A→B) at 2 h, 10 µM in [1] (setting [5]) turned out to be 3.5 ×10⁻⁶ cm/s; in [1] (MDCK-MDR1, Papp A->B, MDCKII-MDR1, assay conc. 10, apical to basolateral) it was 3.46 ×10⁻⁶ cm/s. The efflux ratio at 2 h, 10 µM in the data set on MDR1 (MDCK-MDR1) was 0.13. The recovery at 2 h, 10 µM with MDR1 (MDCK-MDR1, Recovery A->B) was determined as 81.4%; with MDR1 (MDCK-MDR1, Recovery B->A), 63.6%. Further, the GI50 with GIST-T1 stood at 287 ± 176 nM. For the same molecule, the “fold loss of potency compared to avapritinib, T1-a-D842V” value in the data set with T1-a-D842V was found to be 3 fold. In the data set on SK-LMS-1, the “CTG GR50 SK-LMS-1” value is 9.498 ± 0.869 µM and 9.498 µM. Also, the “CTG GR50 SK-LMS-1, single determinations” value in the data set on SK-LMS-1 was 8.494 µM and 10 µM. Moreover, the “activity with respect to the control cell lines” value in the data set on GIST-48B (control cell lines (Table 1, Supplementary Table 2)) was “completely inactive”. Besides, the “ratio GIST-48B/ T1-a-D842V” value with GIST-48B (ratio of GR50 values) is recorded as 196. Also, the GIST-48B/D842V in the data set with GIST-48B (ratio of GR50 values, source data sheet) was 196.
Take `C[C@](N)(c1ccc(F)cc1)c1cnc(N2CCN(c3ncnn4cc(-c5cnn(CCO)c5)cc34)CC2)nc1` [BLU-263]: the “BBB permeability compared to avapritinib” value in [2] is “less BBB permeable compared to avapritinib”.
For the molecule `Cn1cc(-c2cc3c(N4CCN(c5ncc([C@@](C)(N)c6ccc(F)cc6)cn5)CC4)ncnn3c2)cn1` [ava (1), avapritinib], the EC50 with MDA-MB-175VII (setting [4]) was 5.7 µM; in the data set on MDA-MB-175VII (read-out: CTG EC50 MDA-MB-175VII, single determinations, raw data of Supp. Tab. 2, independent experiments, unit from Supp. Tab. 2) it was 5.75 µM and 5.88 µM; in the data set on MDA-MB-175VII (read-out: CTG EC50 MDA-MB-175VII, mean ± s.d., n = 3, control cell line) it was 5.78 µM. For the same molecule, the overall response rates result in data set [3] is given as “more than 90%”. Further, in data set [1], the Papp B→A at 2 h, 10 µM was found to be 3.02 ×10⁻⁶ cm/s. This molecule also yielded an apical-to-basolateral permeability (Papp A→B) at 2 h, 10 µM in data set [1] (setting [5]) of 12.5 ×10⁻⁶ cm/s. The GI50 with GIST-T1 came to 36 ± 10 nM; in the data set with T1-T670I, 457 ± 240 nM; in the data set with T1-V654A (read-out: CTG GR50 T1-V654A, single determinations, raw data of Supp. Tab. 1, independent experiments, unit from Supp. Tab. 1), 256 nM; in the data set on T1-V654A (read-out: KIT CTG GR50 T1-V654A, mean ± s.d., n ≥ 3 (* n = 2 for ava)) it was 357 ± 142 nM; in the data set with T1-a-5258 (read-out: CTG GR50 T1-a-5258, single determinations, raw data of Supp. Tab. 1, independent experiments, unit from Supp. Tab. 1) it was 570 nM; in the data set on T1-a-5258 (read-out: PDGFRA CTG GR50 T1-a-5258, mean ± s.d., n ≥ 3, triple mutant D842V, G652E, V658A), 540 ± 30 nM. Besides, in the data set on T1-D816E, the “KIT CTG GR50 T1-D816E” value was 67 ± 18 nM and 67 nM. In addition, the “CTG GR50 T1-a-G680R, single determinations” value in the data set on T1-a-G680R is 1455 nM and 1460 nM. The “CTG GR50 SK-LMS-1” value in the data set on SK-LMS-1 is 8.423 ± 2.731 µM and 8.423 µM. Also, in the data set with SK-LMS-1, the “CTG GR50 SK-LMS-1, single determinations” value is 5.269 µM and 10 µM.
